The record followed here is US9085570B2, “Substituted benzamides and their uses” (The Board of Trustees of the Leland Stanford Junior …, priority 2010, dated 2015).

Each structure is given as a SMILES string.

Test system in the first data set: not given
Assay: not given
Conditions: not given
`Cc1ccc(S(=O)(=O)Cc2nc(-c3ccc(C(=O)N(C)Cc4cccnc4)cc3)oc2C)cc1` [Example 7, N-Methyl-4-(5-methyl-4-{[(4-methylphenyl)sulfonyl]methyl}-1,3-oxazol-2-yl)-N-(3-pyridinylmethyl)benzamide] had a melting point of 77 to 80 °C. The same measure, in the same setting: in the case of `Cc1oc(-c2ccc(C(=O)NCc3cccnc3)cc2)nc1CS(=O)(=O)c1ccc(N2CCOCC2)cc1` [Example 24, 4-[5-Methyl-4-({[4-(4-morpholinyl)phenyl]sulfonyl}methyl)-1,3-oxazol-2-yl]-N-(3-pyridinylmethyl)benzamide] it was 208 to 210 °C; in that of `Cc1oc(-c2ccc(C(=O)NCc3cccnc3)cc2)nc1CS(=O)(=O)c1ccc(N2CCN(C)CC2)cc1` [Example 23, 4-[5-Methyl-4-({[4-(4-methyl-1-piperazinyl)phenyl]sulfonyl}methyl)-1,3-oxazol-2-yl]-N-(3-pyridinylmethyl)benzamide], 210 to 215 °C; in that of `Cc1oc(-c2ccc(C(=O)NCc3cccnc3)cc2)nc1CS(=O)(=O)c1ccc(F)cc1` [Example 22, 4-(4-{[(4-Fluorophenyl)sulfonyl]methyl}-5-methyl-1,3-oxazol-2-yl)-N-(3-pyridinylmethyl)benzamide], 218 to 220 °C. `Cc1ncc(S(=O)(=O)NCc2ccc(C(=O)Nc3cccnc3)cc2)n1C` [II-6, 4-({[(1,2-Dimethyl-1H-imidazol-5-yl)sulfonyl]amino}methyl)-N-(3-pyridinyl)benzamide] registered a melting point of 238 to 240 °C. Consider `Cc1ccc(S(=O)(=O)Cc2nc(-c3ccc(C(=O)NCCc4cccnc4)cc3)oc2C)cc1` [Example 8, 4-(5-Methyl-4-{[(4-methylphenyl)sulfonyl]methyl}-1,3-oxazol-2-yl)-N-[2-(3-pyridinyl)ethyl]benzamide], for which the melting point lay within 207 to 208 °C.

`COc1ccc(S(=O)(=O)Cc2nc(-c3ccc(C(=O)NCc4cccnc4)cc3)oc2C)cc1OC` [Example 20, 4-(4-{[(3,4-Dimethoxyphenyl)sulfonyl]methyl}-5-methyl-1,3-oxazol-2-yl)-N-(3-pyridinylmethyl)benzamide] displayed a melting point of 104 to 108 °C. On the same count and under the same terms, with `Cc1ccc(S(=O)(=O)Cc2nc(-c3ccc(C(=O)NCc4ccccn4)cc3)oc2C)cc1` [Example 4, 4-(5-Methyl-4-{[(4-methylphenyl)sulfonyl]methyl}-1,3-oxazol-2-yl)-N-(2-pyridinylmethyl)benzamide] the figure was 154 to 155 °C; with `Cc1ccc(S(=O)(=O)Cc2nc(-c3ccc(C(=O)Nc4cccnc4)cc3)oc2C)cc1` [Example 1, 4-(5-Methyl-4-{[(4-methylphenyl)sulfonyl]methyl}-1,3-oxazol-2-yl)-N-(3-pyridinyl)benzamide], 248 to 250 °C; with `Cc1oc(-c2ccc(C(=O)NCc3cccnc3)cc2)nc1CS(=O)(=O)c1ccc(C(C)(C)C)cc1` [Example 14, 4-(4-{[(4-tert-Butylphenyl)sulfonyl]methyl}-5-methyl-1,3-oxazol-2-yl)-N-(3-pyridinylmethyl)benzamide], 177 to 180 °C.

As to `Cc1ccc(S(=O)(=O)Cc2nc(-c3ccc(C(=O)NCc4cncn4C)cc3)oc2C)cc1` [Example 11, N-[(1-Methyl-1H-imidazol-5-yl)methyl]-4-(5-methyl-4-{[(4-methylphenyl)sulfonyl]methyl}-1,3-oxazol-2-yl)benzamide], the melting point was in the range of 240 to 242 °C. On the same count and under the same terms, with `COc1cccc(S(=O)(=O)Cc2nc(-c3ccc(C(=O)NCc4cccnc4)cc3)oc2C)c1` [Example 19, 4-(5-Methyl-4-{[(3-methoxyphenyl)sulfonyl]methyl}-1,3-oxazol-2-yl)-N-(3-pyridinylmethyl)benzamide] the figure was 143 to 145 °C; with `Cc1ccc(S(=O)(=O)Cc2nc(-c3ccc(C(=O)N(C)c4cccnc4)cc3)oc2C)cc1` [Example 3, N-Methyl-4-(5-methyl-4-{[(4-methylphenyl)sulfonyl]methyl}-1,3-oxazol-2-yl)-N-(3-pyridinyl)benzamide], 195 to 197 °C. As for `Cc1oc(-c2ccc(C(=O)NCc3cccnc3)cc2)nc1CS(=O)(=O)c1ccccc1` [Example 12, 4-{5-Methyl-4-[(phenylsulfonyl)methyl]-1,3-oxazol-2-yl}-N-(3-pyridinylmethyl)benzamide], the melting point is 196 to 198 °C. On to `Cc1oc(-c2ccc(C(=O)NCc3cccnc3)cc2)nc1CS(=O)(=O)c1ccc(Br)cc1` [Example 16, 4-(4-{[(4-Bromophenyl)sulfonyl]methyl}-5-methyl-1,3-oxazol-2-yl)-N-(3-pyridinylmethyl)benzamide], for which the melting point fell in the range of 224 to 227 °C. `Cc1cc(C)cc(S(=O)(=O)Cc2nc(-c3ccc(C(=O)NCc4cccnc4)cc3)oc2C)c1` [Example 15, 4-(4-{[(3,5-Dimethylphenyl)sulfonyl]methyl}-5-methyl-1,3-oxazol-2-yl)-N-(3-pyridinylmethyl)benzamide] gave a melting point of 188 to 190 °C. `Cc1oc(-c2ccc(C(=O)NCc3ccccc3)cc2)nc1CS(=O)(=O)c1ccc(Br)cc1` [Example 27, N-Benzyl-4-(4-{[(4-bromophenyl)sulfonyl]methyl}-5-methyl-1,3-oxazol-2-yl)benzamide] gave a melting point of 234 to 237 °C.

With `Cc1cccc(S(=O)(=O)Cc2nc(-c3ccc(C(=O)NCc4cccnc4)cc3)oc2C)c1` [Example 17, 4-(5-Methyl-4-{[(3-methylphenyl)sulfonyl]methyl}-1,3-oxazol-2-yl)-N-(3-pyridinylmethyl)benzamide], the melting point was in the range of 179 to 181 °C. Turning to `COc1ccc(S(=O)(=O)Cc2nc(-c3ccc(C(=O)NCc4cccnc4)cc3)oc2C)cc1` [Example 18, 4-(4-{[(4-Methoxyphenyl)sulfonyl]methyl}-5-methyl-1,3-oxazol-2-yl)-N-(3-pyridinylmethyl)benzamide], the melting point lay within 189 to 191 °C.

Consider `Cc1oc(-c2ccc(C(=O)NCc3cccnc3)cc2)nc1CS(=O)(=O)c1ccc(Cl)cc1` [Example 13, 4-(4-{[(4-Chlorophenyl)sulfonyl]methyl}-5-methyl-1,3-oxazol-2-yl)-N-(3-pyridinylmethyl)benzamide], for which the melting point was in the range of 220 to 222 °C. `Cc1ccc(S(=O)(=O)Cc2nc(-c3ccc(C(=O)NCc4nccn4C)cc3)oc2C)cc1` [Example 10, N-[(1-Methyl-1H-imidazol-2-yl)methyl]-4-(5-methyl-4-{[(4-methylphenyl)sulfonyl]methyl}-1,3-oxazol-2-yl)benzamide] registered a melting point of 190 to 192 °C. For the molecule `Cc1ccc(S(=O)(=O)Cc2nc(-c3ccc(C(=O)NCc4cnccn4)cc3)oc2C)cc1` [Example 9, 4-(5-Methyl-4-{[(4-methylphenyl)sulfonyl]methyl}-1,3-oxazol-2-yl)-N-(2-pyrazinylmethyl)benzamide], the melting point was 204 to 206 °C. For the molecule `Cc1ccc(S(=O)(=O)Cc2csc(-c3ccc(C(=O)NCc4cccnc4)cc3)n2)cc1` [Example 25, 4-(4-{[(4-Methylphenyl)sulfonyl]methyl}-1,3-thiazol-2-yl)-N-(3-pyridinylmethyl)benzamide], the melting point was 178 to 181 °C. Turning to `Cc1ccc(S(=O)(=O)Cc2nc(-c3ccc(C(=O)Nc4ccncc4)cc3)oc2C)cc1` [Example 2, 4-(5-Methyl-4-{[(4-methylphenyl)sulfonyl]methyl}-1,3-oxazol-2-yl)-N-(4-pyridinyl)benzamide], the melting point lay within 229 to 231 °C. `Cc1ccc(S(=O)(=O)Cc2nc(-c3ccc(C(=O)NCc4ccncc4)cc3)oc2C)cc1` [Example 6, 4-(5-Methyl-4-{[(4-methylphenyl)sulfonyl]methyl}-1,3-oxazol-2-yl)-N-(4-pyridinylmethyl)benzamide] returned a melting point of 169 to 172 °C.

In the next data set the test system is RCC4. Description: XTT cell viability assay in RCC4 cells (VHL-deficient renal carcinoma). The class given is cell-based. To be noted: Homo sapiens, 96 h, four days drug exposure. The method, then: (§1) Cell Culture. RCC4 parental and RCC4 with VHL-reintroduced (RCC4/VHL), SN12C and SN12C-CSCG-VHL shRNA were maintained in DMEM supplemented with 10% FCS.
(§2) Cell Viability Assays. For 2,3-bis[2-methoxy-4-nitro-5-sulfophenyl]-2H-tetrazolium-5-carboxanilide (XTT) assays, five thousand cells were plated in 96-well plates. The next day, vehicle (DMSO) or drug was added by serial dilution. Four days later, media were aspirated, XTT solution (0.3 mg/ml of XTT (Sigma), […] N-methyl dibenxopyrazine methyl sulfate (Simga) in phenol red-free media) was added, and the plates were incubated at 37° C. for 1-2 hours. Metabolism of XTT was quantified by measuring the absorbance at 450 nm IC50s were calculated using linear interpolation. For clonogenic survival assays, three hundred cells were plated per 60 mm tissue culture dish. The cells were allowed to attach overnight and then treated with vehicle or drug for 14 days. Colonies were fixed and stained with crystal violet (0.1% crystal violet in 95% ethanol). All conditions were measured in triplicate and each experiment was done in duplicate or triplicate. To determine necrosis, cells were treated with drug for a given time point. Media and cells were collected, centrifugated, and resuspended in 0.4% trypan blue (Invitrogen). Live and dead cells were counted on a hematocytometer.
(§3) The designation A reflects an IC50 of <1 nM; B reflects an IC50 ranging from 1 to 20 nM; and C is an IC50 of >20 nM. The designation “a” reflects a ratio of RCC4/RCC-VHL+ranging from 1 to ≦10; “b” reflects from 10 to ≦100; “c” reflects a ratio of >100. Compounds I-29 have an IC50 value of ≦10 μM when tested in the above assay.
The molecule `Cc1ncc(S(=O)(=O)NCc2ccc(C(=O)Nc3cccnc3)cc2)n1C` [II-6, 4-({[(1,2-Dimethyl-1H-imidazol-5-yl)sulfonyl]amino}methyl)-N-(3-pyridinyl)benzamide] yielded an IC50 above 0.02 µM.

In another data set the test system is RCC4 with VHL-reintroduced (RCC4/VHL). Put plainly: XTT cell viability assay in RCC4/VHL cells, selectivity ratio versus RCC4. To be noted: Ratio = IC50RCC4/VHL/IC50RCC4. The class given is cell-based. How it is done: as §1, §2, §3
Take `O=C(Nc1cccnc1)c1ccc(CNS(=O)(=O)c2cccnc2)cc1` [II-1, N-(3-Pyridinyl)-4-{[(3-pyridylsulfonyl)amino]methyl}benzamide]: the Ratio result is recorded as “a (a ratio of RCC4/RCC-VHL+ranging from 1 to ≦10)”. As to `O=C(Nc1cccnc1)c1ccc(CNS(=O)(=O)c2cccs2)cc1` [II-4, N-(3-Pyridinyl)-4-{[(2-thienylsulfonyl)amino]methyl}benzamide], the Ratio entry is given as “a (a ratio of RCC4/RCC-VHL+ranging from 1 to ≦10)”. On to `O=C(Nc1cccnc1)c1ccc(CNS(=O)(=O)c2ccsc2)cc1` [II-5, N-(3-Pyridinyl)-4-{[(3-thienylsulfonyl)amino]methyl}benzamide], for which the Ratio result is reported as “a (a ratio of RCC4/RCC-VHL+ranging from 1 to ≦10)”. As to `O=C(Nc1cccnc1)c1ccc(CNS(=O)(=O)c2ccc(Oc3ccccc3)nc2)cc1` [II-3, 4-({[(6-Phenoxy-3-pyridinyl)sulfonyl]amino}methyl)-N-(3-pyridinyl)benzamide], the Ratio entry is given as “a (a ratio of RCC4/RCC-VHL+ranging from 1 to ≦10)”.

Usually melting point stands for the temperature of the solid-liquid transition. One may read the IC50 as the concentration that inhibits the measured activity by half. A high value points to weaker potency in that assay.
